Results as given in patent US10597388B2, “Pyridazinone herbicides” (FMC CORPORATION, priority 2014, dated 2020).

Key:
Assay type in all cases: in vivo
[1] = system: ducksalad (Heteranthera limosa); test: Test B flooded paddy test; details: 250 g ai/ha, Flood; visual rating on scale of 0 to 100 where 0 is no effect and 100 is complete control; 13 to 15 d after treatment
Protocol: (§1) Plant species in the flooded paddy test selected from rice (Oryza sativa), sedge, umbrella (small-flower umbrella sedge, Cyperus difformis), ducksalad (Heteranthera limosa), and barnyardgrass (Echinochloa crus-galli) were grown to the 2-leaf stage for testing. At time of treatment, test pots were flooded to 3 cm above the soil surface, treated by application of test compounds directly to the paddy water, and then maintained at that water depth for the duration of the test. Treated plants and controls were maintained in a greenhouse for 13 to 15 d, after which time all species were compared to controls and visually evaluated. Plant response ratings, summarized in Table B, are based on a scale of 0 to 100 where 0 is no effect and 100 is complete control. A dash (-) response means no test result.

[2] = system: barnyardgrass (Echinochloa crus-galli); test: Test B flooded paddy test; details: 250 g ai/ha, Flood; visual rating on scale of 0 to 100 where 0 is no effect and 100 is complete control; 13 to 15 d after treatment
Protocol: as §1

rice (Oryza sativa) = test: Test B flooded paddy test; details: 250 g ai/ha, Flood; visual rating on scale of 0 to 100 where 0 is no effect and 100 is complete control; 13 to 15 d after treatment
Protocol: as §1

[3] = system: sedge, umbrella (small-flower umbrella sedge, Cyperus difformis); test: Test B flooded paddy test; details: 250 g ai/ha, Flood; visual rating on scale of 0 to 100 where 0 is no effect and 100 is complete control; 13 to 15 d after treatment
Protocol: as §1

[4] = system: galium (catchweed bedstraw, Galium aparine); test: Test A greenhouse herbicide test, postemergence
In short: (§2)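 Seedlings in a loam soil and sand mix received formulated compound postemergence at the one- to two-leaf stage. Greenhouse holding lasts approximately 10 d, then injury is scored visually relative to untreated plants, 0 meaning no effect and 100 complete control.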

[5] = system: blackgrass (Alopecurus myosuroides); test: Test A greenhouse herbicide test, postemergence
In short: as §2

[6] = system: wheat (Triticum aestivum); test: Test A greenhouse herbicide test, pre- and postemergence; details: Postemergence
Description: (§3) Seeds of plant species selected from barnyardgrass (Echinochloa crus-galli), kochia (Kochia scoparia), ragweed (common ragweed, Ambrosia elatior), ryegrass, Italian (Italian ryegrass, Lolium multiflorum), crabgrass, large (large crabgrass, Digitaria sanguinalis), foxtail, giant (giant foxtail, Setaria faberii), momingglory (Ipomoea spp.), pigweed (Amaranthus retroflexus), velvetleaf (Abutilon theophrasti), wheat (Triticum aestivum), and corn (Zea mays) were planted into a blend of loam soil and sand and treated preemergence with a directed soil spray using test chemicals formulated in a non-phytotoxic solvent mixture which included a surfactant.
(§4) At the same time, plants selected from these crop and weed species and also blackgrass (Alopecurus myosuroides), and galium (catchweed bedstraw, Galium aparine) were planted in pots containing the same blend of loam soil and sand and treated with postemergence applications of test chemicals formulated in the same manner. Plants ranged in height from 2 to 10 cm and were in the one- to two-leaf stage for the postemergence treatment. Treated plants and untreated controls were maintained in a greenhouse for approximately 10 d, after which time all treated plants were compared to untreated controls and visually evaluated for injury. Plant response ratings, summarized in Table A, are based on a 0 to 100 scale where 0 is no effect and 100 is complete control. A dash (-) response means no test result.

[7] = system: barnyardgrass (Echinochloa crus-galli); test: as above
Description: as §3, §4

corn (Zea mays) = test: as above; details: Postemergence
Description: as §3, §4

[8] = system: foxtail, giant (giant foxtail, Setaria faberii); test: as above
Description: as §3, §4

[9] = system: ragweed (common ragweed, Ambrosia elatior); test: as above
Description: as §3, §4

[10] = system: pigweed (Amaranthus retroflexus); test: as above
Description: as §3, §4

kochia (Kochia scoparia) = test: as above
Description: as §3, §4

[11] = system: ryegrass, Italian (Italian ryegrass, Lolium multiflorum); test: as above
Description: as §3, §4

[12] = 125 g ai/ha, visual rating after approx. 10 d, 0 to 100 scale (0 no effect, 100 complete control)
[13] = 500 g ai/ha, 0 to 100 scale, 0 is no effect, 100 is complete control
[14] = 125 g ai/ha, 0 to 100 scale where 0 is no effect and 100 is complete control
[15] = Postemergence, 125 g ai/ha, visual rating after approx. 10 d, 0 to 100 scale (0 no effect, 100 complete control)
[16] = Postemergence, 500 g ai/ha, 0 to 100 scale, 0 is no effect, 100 is complete control
[17] = Preemergence, 125 g ai/ha, 0 to 100 scale where 0 is no effect and 100 is complete control
[18] = Preemergence, 500 g ai/ha, 0 to 100 scale, 0 no effect, 100 complete control
[19] = Postemergence, 125 g ai/ha, 0 to 100 scale where 0 is no effect and 100 is complete control
[20] = 500 g ai/ha, visual rating after approx. 10 d, 0 to 100 scale (0 no effect, 100 complete control)
[21] = Postemergence, 500 g ai/ha, visual rating after approx. 10 d, 0 to 100 scale (0 no effect, 100 complete control)
[22] = Preemergence, 500 g ai/ha, 0 to 100 scale where 0 is no effect and 100 is complete control

Compound: Cn1ncc(O)c(-c2ccc(F)c3ccccc23)c1=O [Compound 24]
- Plant response rating, Ducksalad [1]: 0
- Plant response rating, Barnyardgrass [2]: 0
- Plant response rating, Rice (rice (Oryza sativa)): 0
- Plant response rating, Sedge, Umbrella [3]: 0
- Plant response rating, Galium [4, 12]: 80
- Galium plant response rating [4, 13]: 100
- Plant response rating, Blackgrass [5, 12]: 30
- Blackgrass plant response rating [5, 13]: 50
- Plant response rating, Wheat [6, 14]: 30
- Wheat plant response rating [6, 13]: 70
- Plant response rating, Barnyardgrass [7, 15]: 40
- Barnyardgrass plant response rating [7, 16]: 50
- Barnyardgrass plant response rating [7, 17]: 30
- Plant response rating, Barnyardgrass [7, 18]: 60
- Plant response rating, Corn (corn (Zea mays); [12]): 0
- Corn plant response rating (corn (Zea mays); [13]): 0
- Plant response rating, Foxtail, Giant [8, 15]: 10
- Foxtail, Giant plant response rating [8, 16]: 60
- Foxtail, Giant plant response rating [8, 17]: 60
- Plant response rating, Foxtail, Giant [8, 18]: 80
- Plant response rating, Ragweed [9, 15]: 30
- Ragweed plant response rating [9, 16]: 60
- Ragweed plant response rating [9, 17]: 0
- Plant response rating, Ragweed [9, 18]: 0
- Plant response rating, Pigweed [10, 15]: 70
- Pigweed plant response rating [10, 16]: 90
- Pigweed plant response rating [10, 17]: 70
- Plant response rating, Pigweed [10, 18]: 90
- Plant response rating, Kochia (kochia (Kochia scoparia); [15]): 70
- Kochia plant response rating (kochia (Kochia scoparia); [16]): 80
- Kochia plant response rating (kochia (Kochia scoparia); [17]): 30
- Plant response rating, Kochia (kochia (Kochia scoparia); [18]): 50
- Plant response rating, Ryegrass, Italian [11, 19]: 70
- Ryegrass, Italian plant response rating [11, 16]: 90
- Ryegrass, Italian plant response rating [11, 17]: 80
- Plant response rating, Ryegrass, Italian [11, 18]: 80

Compound: CC(=O)Oc1cnn(C)c(=O)c1-c1c(C)sc2ccccc12 [Compound 120]
- Plant response rating, Galium [4, 14]: 40
- Plant response rating, Galium [4, 20]: 70
- Plant response rating, Blackgrass [5, 14]: 0
- Plant response rating, Blackgrass [5, 20]: 10
- Plant response rating, Wheat [6, 14]: 0
- Plant response rating, Wheat [6, 20]: 0
- Plant response rating, Barnyardgrass [7, 19]: 0
- Plant response rating, Barnyardgrass [7, 21]: 10
- Barnyardgrass plant response rating [7, 17]: 0
- Plant response rating, Barnyardgrass [7, 22]: 30
- Plant response rating, Corn (corn (Zea mays); [14]): 0
- Plant response rating, Corn (corn (Zea mays); [20]): 0
- Plant response rating, Foxtail, Giant [8, 19]: 0
- Plant response rating, Foxtail, Giant [8, 21]: 10
- Foxtail, Giant plant response rating [8, 17]: 0
- Plant response rating, Foxtail, Giant [8, 22]: 20
- Plant response rating, Ragweed [9, 19]: 0
- Plant response rating, Ragweed [9, 21]: 10
- Ragweed plant response rating [9, 17]: 0
- Plant response rating, Ragweed [9, 22]: 30
- Plant response rating, Pigweed [10, 19]: 20
- Plant response rating, Pigweed [10, 21]: 50
- Pigweed plant response rating [10, 17]: 0
- Plant response rating, Pigweed [10, 22]: 70
- Plant response rating, Kochia (kochia (Kochia scoparia); [19]): 0
- Plant response rating, Kochia (kochia (Kochia scoparia); [21]): 30
- Kochia plant response rating (kochia (Kochia scoparia); [17]): 0
- Plant response rating, Kochia (kochia (Kochia scoparia); [22]): 0
- Plant response rating, Ryegrass, Italian [11, 19]: 20
- Plant response rating, Ryegrass, Italian [11, 21]: 80
- Ryegrass, Italian plant response rating [11, 17]: 30
- Plant response rating, Ryegrass, Italian [11, 22]: 30

Compound: Cc1sc2ccc(C(F)(F)F)cc2c1-c1c(O)c(Cl)nn(C)c1=O [Compound 140]
- Plant response rating, Galium [4, 14]: 70
- Plant response rating, Galium [4, 20]: 90
- Plant response rating, Blackgrass [5, 14]: 30
- Plant response rating, Blackgrass [5, 20]: 50
- Plant response rating, Wheat [6, 14]: 20
- Plant response rating, Wheat [6, 20]: 70
- Plant response rating, Barnyardgrass [7, 19]: 50
- Plant response rating, Barnyardgrass [7, 21]: 90
- Barnyardgrass plant response rating [7, 17]: 50
- Plant response rating, Barnyardgrass [7, 22]: 70
- Plant response rating, Corn (corn (Zea mays); [14]): 20
- Plant response rating, Corn (corn (Zea mays); [20]): 30
- Plant response rating, Foxtail, Giant [8, 19]: 40
- Plant response rating, Foxtail, Giant [8, 21]: 90
- Foxtail, Giant plant response rating [8, 17]: 50
- Plant response rating, Foxtail, Giant [8, 22]: 80
- Plant response rating, Ragweed [9, 19]: 90
- Plant response rating, Ragweed [9, 21]: 100
- Plant response rating, Ragweed [9, 22]: 90
- Plant response rating, Pigweed [10, 19]: 70
- Plant response rating, Pigweed [10, 21]: 90
- Pigweed plant response rating [10, 17]: 50
- Plant response rating, Pigweed [10, 22]: 100
- Plant response rating, Kochia (kochia (Kochia scoparia); [19]): 30
- Plant response rating, Kochia (kochia (Kochia scoparia); [21]): 70
- Kochia plant response rating (kochia (Kochia scoparia); [17]): 0
- Plant response rating, Kochia (kochia (Kochia scoparia); [22]): 30
- Plant response rating, Ryegrass, Italian [11, 19]: 70
- Plant response rating, Ryegrass, Italian [11, 21]: 100
- Plant response rating, Ryegrass, Italian [11, 22]: 90

Compound: Cc1ccc2ccccc2c1-c1c(OS(C)(=O)=O)cnn(C)c1=O [Compound 142]
- Plant response rating, Galium [4, 14]: 70
- Plant response rating, Galium [4, 20]: 80
- Plant response rating, Blackgrass [5, 14]: 10
- Plant response rating, Blackgrass [5, 20]: 20
- Plant response rating, Wheat [6, 14]: 0
- Plant response rating, Wheat [6, 20]: 0
- Plant response rating, Barnyardgrass [7, 19]: 10
- Plant response rating, Barnyardgrass [7, 21]: 20
- Barnyardgrass plant response rating [7, 17]: 10
- Plant response rating, Barnyardgrass [7, 22]: 70
- Plant response rating, Corn (corn (Zea mays); [14]): 0
- Plant response rating, Corn (corn (Zea mays); [20]): 0
- Plant response rating, Foxtail, Giant [8, 19]: 10
- Plant response rating, Foxtail, Giant [8, 21]: 20
- Foxtail, Giant plant response rating [8, 17]: 10
- Plant response rating, Foxtail, Giant [8, 22]: 60
- Plant response rating, Ragweed [9, 19]: 0
- Plant response rating, Ragweed [9, 21]: 20
- Plant response rating, Ragweed [9, 22]: 40
- Plant response rating, Pigweed [10, 19]: 20
- Plant response rating, Pigweed [10, 21]: 50
- Pigweed plant response rating [10, 17]: 60
- Plant response rating, Pigweed [10, 22]: 50
- Plant response rating, Kochia (kochia (Kochia scoparia); [19]): 0
- Plant response rating, Kochia (kochia (Kochia scoparia); [21]): 20
- Kochia plant response rating (kochia (Kochia scoparia); [17]): 0
- Plant response rating, Kochia (kochia (Kochia scoparia); [22]): 0
- Plant response rating, Ryegrass, Italian [11, 19]: 80
- Plant response rating, Ryegrass, Italian [11, 21]: 90
- Plant response rating, Ryegrass, Italian [11, 22]: 80
